The source of these data is patent publication US9422238B2, “ICMT inhibitors” (National University of Singapore, priority 2012, dated 2016).

Series [1] deals with several malignant cell lines. Conditions: irrespective of Ras status; cited from earlier work.
Series [2] concerns PC3 Prostrate cancer cells. The series is described as follows: Antiproliferative activity / cell viability (MTS, 72 h). It is filed as cell-based, human. As to conditions: Homo sapiens.
Protocol: The relative number of the live cells was determined using the CellTiter® 96 AQueous One Solution Cell Proliferation Assay (Promega). Determinations were made in duplicates or triplicates.
Series [3] deals with MDA-MB-231 human breast cells. As to conditions: earlier study; read-out: IC50 MDA-MB-231, previous value; cited from earlier work.
Series [4] deals with Human hepatocellular carcinoma HepG2 cells. The experiment in a line: Cell viability (MTS, 72 h). As to conditions: HepG2, Table 6, mean (SD), read-out: IC50 (μM) HepG2. It is filed as cell-based. Here is the method: (§1) Cell viability was determined from the expression:
(§2) The plot was constrained to ≧0 and ≦100%.
Human hepatocellular carcinoma HepG2 and human pancreatic cancer MIA PACA II cells were obtained from ATCC (Rockville, Md.). They were grown in DMEM (high glucose, Invitrogen) supplemented with 10% FBS, 50 μg/mL penicillin and 50 μg/mL streptomycin, 37° C., 5% CO2 until they reached 80-90% confluency, after which they were subcultured. Passage numbers were kept within 7-14 passages for both cell types.

The target of series [5] is T1, Isoprenylcysteine carboxyl methyltransferase (Icmt) (Homo sapiens, UniProt O60725).
T1 construct: made in house; host or cells: Sf9 (Spodoptera frugiperda) insect cells; membrane preparation provided by Prof PJ Casey (Duke University / Duke-NUS)
The series is described as follows: Icmt inhibition, scintillation proximity assay with BFC and [3H]SAM. In kind it is biochemical. Conditions: Table 3, mean of two or more determinations (SD), read-out: IC50 Icmt. Here is the method:
Isoprenylcysteine carboxyl methyltransferase (Icmt) was provided by Prof PJ Casey of Duke University, NC. S-Adenosylmethionine (SAM), magnesium chloride Hexahydrate (MgCl2), tartrazine, 4-(2-hydroxyethyl)-1-piperazineethanesulfonic acid (HEPES), dimethyl sulfoxide (DMSO) and dithiotreitol (DTT) were purchased from Sigma (Mo, USA). [^3H] S-Adenosylmethionine, [^3H] Biotin and Streptavidin PVT SPA Beads were purchased from PerkinElmer (Waltham, Mass.). Assays were performed in black small volume 384 well microtitre plates from PerkinElmer.
Stocks of Icmt membrane protein (30 μg/μL) stored at −80° C. were thawed at 37° C. and placed on ice. The Icmt membrane protein was diluted in assay buffer (70 mM HEPES, 100 mM NaCl, 5 mM Mg Cl2 and 3 mM DTT, pH 7.5) to a 0.03 μg/μL working concentration and added to the wells of a microtitre plate (5 μl/well). To each wells 20 μl of the reaction buffer was added. The reaction was initiated with the addition of 5 μL of substrate solution containing BFC (6 μM), SAM (3 μM) and 30 μCi/mL [^3H] SAM (all of these reagents were stored at −20° C., SAM reagents thawed on ice, BFC thawed at RT). The plate was incubated at 37° C. for 30 minutes. The reaction was stopped with the addition of 15 μL of stop solution containing SAM (150 μM) and Streptavidin SPA beads (20 mg/mL). Following overnight incubation at ambient temperature radioactivity was counted on a Microbeta Trilux™ (Perkin Elmer, Turku, Finland).
Sf9 (Spodoptera frugiperda ovarian) membranes containing recombinant Icmt were provided by Prof PJ Casey (Duke University, NC and Duke-NUS Graduate Medical School). S-Adenosylmethionine (SAM), magnesium chloride hexahydrate, tartrazine, 4-(2-hydroxyethyl)-1-piperazineethanesulfonic acid (HEPES) and dithiotreitol (DTT) were purchased from Sigma (Mo, USA). [^3H] S-Adenosylmethionine, [^3H] biotin and streptavidin PVT SPA Beads were purchased from PerkinElmer (Waltham, Mass.). Biotinylated farnesylcysteine was synthesized as described in an earlier report. Assays were performed in black 384-well microtitre plates from PerkinElmer.
A vial of Icmt membrane protein (30 μg/μL) stored at −80° C. was thawed at 37° C. and placed on ice. The protein was diluted in assay buffer (70 mM HEPES, 100 mM NaCl, 5 mM MgCl2, 3 mM DTT, pH 7.5) to 0.03 μg/μL and aliquots were added to each well (5 μL/well), followed by 20 μL of the assay buffer. The reaction was initiated by adding 5 μL of a solution containing biotinylated BFC (6 μM), SAM (3 μM) and 30 μCi/mL [^3H] SAM. These reagents were stored at −20° C. and thawed on ice (SAM, [^3H] SAM) or at room temperature (BFC). The plate was incubated at 37° C. for 30 minutes after which the reaction was quenched by adding 15 μL of a solution comprising SAM (150 μM) and streptavidin SPA beads (20 mg/mL). After overnight incubation at ambient temperature, radioactivity was counted (Microbeta Trilux™, Perkin Elmer, Turku, Finland). The degree of inhibition was assessed from the radioactivity obtained in presence of test compound compared to that obtained from the control sample […]. Two independent determinations were made for each test compound.
Background: SPA uses beads or plates that emit light when radiolabelled molecules are held near them.

Series [6] is described as follows: physchem. Conditions: pH 7.4, aqueous buffer, kinetic from dmso stock. Here is the method: The turbid solution was delivered to the filter plate, agitated for a specific time period and then filtered. The concentration of dissolved compound in the filtrate was determined by uv spectroscopy and referred to pre-constructed calibration curves for solubility determination.
(§3) Determination of aqueous solubility was carried out on Multiscreen® Solubility filter plates (Millipore-MSSLBPC10) from Millipore Corporation (MA, USA). The protocol (PC2445EN00, Millipore Corporation) was followed. Briefly, various concentrations of the test compound were prepared in Universal buffer (pH 7.4)/acetonitrile/DMSO. The UV absorbances of these solutions were obtained at a pre-determined wavelength and used to construct a calibration curve for the test compound. Next, a stock solution of the test compound in DMSO was prepared at a known concentration, diluted with Universal buffer (pH 7.4), dispensed into wells in the Multiscreen Solubility filter plate, and agitated for a period of time. The suspension is then filtered, the filtrate collected and diluted with acetonitrile to give the same solvent composition used to prepare the calibration solutions. The absorbance of the diluted filtrate was then read at the predetermined wavelength and the concentration of the filtrate (taken here to be equivalent to the solubility of the test compound) was determined from the calibration curve.
as §3, with “24 hours at room temperature (25 deg C.). […]” for “a period of time.”, “was” for “is then”, “was” for “was then”, “(equivalent” for “(taken here to be equivalent”, “curve. […] LCMS determinations were made on an Agilent 1200 Series HPLC linked to a AB Sciex Instruments 3200 Q TRAP LC/MS/MS. Separations were carried out on a Phenomenex Luna column [3u, C18(2), 100A, 5×4.6 mm]. […] Quantification was based on the ratio of peak areas of the daughter ion and the mother ion (M+H), normalized against the same ratio obtained for the internal standard. The solubility determinations were carried out in triplicates or more from two different stock solutions.” for “curve.”

Series [7] has as its system Human lung fibroblast IMR90 cells. The series is described as follows: Cell viability on non-malignant cells (MTS, 72 h). It is filed as cell-based. Conditions: IMR-90, Table 6, mean (SD), read-out: IC50 (μM) IMR90. Here is the method: as §1, §2
Human lung fibroblast IMR90 cells were purchased from ATCC (Rockville, Md.) and grown in Eagle's Minimal Essential Media (EMEM, Sigma Aldrich, Singapore) at 37° C., 5% CO2. […] Seeding density was maintained at 4000 cells per well.

Series [8] concerns MDA-MB-231 human breast cells. The experiment in a line: Antiproliferative activity / cell viability (MTS, 72 h). As to conditions: Homo sapiens.

Read-outs that look alike come from different tables or passages of the source. Bounds are passed on as bounds.

T1 sequence (O60725 whole entry, species assumed): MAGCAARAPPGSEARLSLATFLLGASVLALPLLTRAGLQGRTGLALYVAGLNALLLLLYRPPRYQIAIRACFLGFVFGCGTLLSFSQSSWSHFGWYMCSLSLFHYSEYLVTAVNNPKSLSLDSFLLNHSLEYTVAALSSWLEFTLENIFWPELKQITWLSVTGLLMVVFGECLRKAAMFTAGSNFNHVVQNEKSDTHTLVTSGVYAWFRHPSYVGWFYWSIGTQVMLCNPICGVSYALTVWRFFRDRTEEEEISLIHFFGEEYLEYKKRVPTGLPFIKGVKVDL

The GI50 is the concentration at which growth is held to half of that of the control. On to `COc1cccc(NCCC2(c3ccccc3)CC(C)(C)OC(C)(C)C2)c1` [3-methoxy-N-[2-(2,2,6,6-tetramethyl-4-phenyltetrahydropyran-4-yl)ethyl]aniline], for which, in series [1], the concentration for 50% growth inhibition (GI50) was not below 0.3 µM.
A word on the solubility: it is the concentration that dissolves in the medium under given conditions. A high value points to much dissolved substance. In the case of `CCCCCCCCn1cc(CN(CC)CC)c2cc(-c3cccc(C)c3)ccc21` [Compound 8-1], the IC50 in series [2] (PC-3M, Table 3, 72 h, mean (SD), read-out: IC50 PC3) is 6.31 µM; in series [2] (Table 6, from earlier table, read-out: IC50 (μM) PC3) it was 6.31 µM; in series [3], 3.6 µM; in series [4] it was 6.57 µM; in series [5] (listed as 8.1), 2.18 µM; in series [5], 2.2 µM. The IC50 in series [7] was 5.26 µM; in series [8] (MDA-MB-231, 72 h, read-out: IC50MDA-MB-231 (μM)), 7.9 µM; in series [8] (MDA-MB-231, read-out: IC50 (μM) MDA MB 231), 7.9 µM. In series [6] (25 °C), this compound returned a solubility at 24 h of less than 1 µM. Besides, the solubility at 3 h in series [6] was less than 1 µM.
